Assay results taken from patent US20090136448A1, “Antiviral 2-Carboxy-Thiophene Compounds” (priority 2005, published 2009).

Columns and labels:
[1] = system: HCV replication, genotype 1a (Huh-7 HCV replicon cell); assay: Replicon ELISA cell based assay, genotype 1a; settings: Hepatitis C virus, Huh-7 HCV replicon cells, 72 hours, mean, assayed at least twice
Experimental: (§1) Replicon ELISA Cell Based Assay
(§2) 100 μL of medium containing 10% FCS were added to each well of clear, flat-bottomed 96 well microplates, excepting wells in the top row. Test compound was diluted in assay medium to twice the final required starting concentration from a 40 mM stock solution in DMSO. 200 μL of the starting dilution were introduced into two wells each in the top row and doubling dilutions made down the plate by the sequential transfer of 100 μL aliquots with thorough mixing in the wells; the final 100 μL were discarded. The two bottom rows were not used for compound dilutions. Huh-7 HCV replicon cell monolayers nearing confluency were stripped from growth flasks with versene-trypsin solution and the cells were resuspended in assay medium at either 2×10^5 cells/mL (sub-line 5-15; genotype 1b; Lohmann, V., Korner, F., Koch, J-O., Herian, U., Thielmann, L. and Bartenschlager, R., Science, 1999, 285, 110-113) or at 3×10^5 cells/mL (genotype 1a; Gu, B., Gates, A. T., Isken, O., Behrens, S. E. and Sarisky, R. T., J. Virol., 2003, 77, 5352-5359). 100 μL of cell suspension were added to all wells and the plates incubated at 37° C. for 72 hours in a 5% CO2 atmosphere.
(§3) Following incubation, the assay medium was aspirated from the plates. The cell sheets were washed by gentle immersion in phosphate buffered saline (PBS), which was then aspirated off, and fixed with acetone:methanol (1:1) for 5 minutes. Following a further wash with PBS, 100 μL of ELISA diluent (PBS+0.05% v/v Tween 20+2% w/v skimmed milk powder) were added to all wells and the plates incubated at 37° C. for 30 minutes on an orbital platform. The diluent was removed and each well then received 50 μL of a 1/200 dilution of anti-HCV specific, murine, monoclonal antibody (either Virostat #1872 or #1877), except for wells in one of the compound-free control rows which received diluent alone to act as negative controls. The plates were incubated at 37° C. for 2 hours and washed 3 times with PBS/0.05% Tween 20, then 50 μL of horseradish peroxidase conjugated, anti-mouse, rabbit polyclonal serum (Dako #P0260), diluted 1/1000, were added to all wells. The plates were incubated for a further hour, the antibody removed and the cell sheets washed 5 times with PBS/Tween and blotted dry. The assay was developed by the addition of 50 μL of ortho-phenylenediamine/peroxidase substrate in urea/citrate buffer (SigmaFast, Sigma #P-9187) to each well, and colour allowed to develop for up to 15 minutes. The reaction was stopped by the addition of 25 μL per well of 2 M sulphuric acid and the plates were read at 490 nm on a Fluostar Optima spectrophotometer.
(§4) The substrate solution was removed and the plates were washed in tap water, blotted dry and the cells stained with 5% carbol fuchsin in water for 30 minutes. The stain was discarded and the cell sheets washed, dried and examined microscopically to assess cytotoxicity.
(§5) The absorbance values from all compound-free wells that had received both primary and secondary antibodies were averaged to obtain a positive control value. The mean absorbance value from the compound-free wells that had not received the primary antibody was used to provide the negative (background) control value. The readings from the duplicate wells at each compound concentration were averaged and, after the subtraction of the mean background from all values, were expressed as a percentage of the positive control signal. The quantifiable and specific reduction of expressed protein detected by the ELISA in the presence of a drug can be used as a measure of replicon inhibition. GraFit software (Erithacus Software Ltd.) was used to plot the curve of percentage inhibition against compound concentration and derive the 50% inhibitory concentration (IC50) for the compound.

[2] = system: HCV replication, genotype 1b (Huh-7 HCV replicon cell, sub-line 5-15); assay: Replicon ELISA cell based assay, genotype 1b; settings: Hepatitis C virus, Huh-7 HCV replicon cells, genotype 1b (sub-line 5-15), 72 hours, mean, assayed at least twice
Experimental: as §1, §2, §3, §4, §5

SMILES | IC50 [1] [nM] | IC50 [2] [nM]
CC(C)N(c1cc(-c2ccc(-c3cc4ncccn4n3)cc2)sc1C(=O)O)C(=O)[C@H]1CC[C@H](C(F)(F)F)CC1 [Example 15, 3-((1-Methylethyl){[trans-4-(trifluoromethyl)cyclohexyl]carbonyl}-amino)-5-(4-pyrazolo[1,5-a]pyrimidin-2-ylphenyl)-2-thiophenecarboxylic acid] | 100 to 500 | 50 to 100
CC(C)N(c1cc(-c2ccc(-c3nc4c(N)cccc4o3)cc2)sc1C(=O)O)C(=O)[C@H]1CC[C@H](C)CC1 [Example 16, 5-[4-(4-Amino-1,3-benzoxazol-2-yl)phenyl]-3-[[(trans-4-methylcyclohexyl)carbonyl](1-methylethyl)amino]-2-thiophenecarboxylic acid] | 10 to 50 | 10 to 50
CC(C)N(c1cc(-c2ccc(-c3ccn4nccc4n3)cc2)sc1C(=O)O)C(=O)[C@H]1CC[C@H](C)CC1 [Example 17, 3-[[(trans-4-Methylcyclohexyl)carbonyl](1-methylethyl)amino]-5-(4-pyrazolo[1,5-a]pyrimidin-5-ylphenyl)-2-thiophenecarboxylic acid] | 100 to 500 | 100 to 500
CC(C)N(c1cc(-c2ccc(-c3cc4ncccc4o3)nc2)sc1C(=O)O)C(=O)[C@H]1CC[C@H](C)CC1 [Example 18, 5-(6-Furo[3,2-b]pyridin-2-yl-3-pyridinyl)-3-[[(trans-4-methylcyclohexyl)carbonyl](1-methylethyl)amino]-2-thiophenecarboxylic acid] | 50 to 100 | 10 to 50
CC(C)N(c1cc(-c2ccc(-c3cc4cccc(O)c4o3)cc2)sc1C(=O)O)C(=O)[C@H]1CC[C@H](C)CC1 [Example 19, 5-[4-(7-Hydroxy-1-benzofuran-2-yl)phenyl]-3-[[(trans-4-methylcyclohexyl)carbonyl](1-methylethyl)amino]-2-thiophenecarboxylic acid] | < 5 | < 5
CC(C)N(c1cc(-c2ccc(-c3nc4cccc(O)c4o3)cc2)sc1C(=O)O)C(=O)[C@H]1CC[C@H](C)CC1 [Example 20, 5-[4-(7-Hydroxy-1,3-benzoxazol-2-yl)phenyl]-3-[[(trans-4-methylcyclohexyl)carbonyl](1-methylethyl)amino]-2-thiophenecarboxylic acid] | 100 to 500 | 10 to 50
CC(C)N(c1cc(-c2ccc(-c3cn4ccsc4n3)cc2)sc1C(=O)O)C(=O)[C@H]1CC[C@H](C(F)(F)F)CC1 [Example 21, 5-(4-Imidazo[2,1-b][1,3]thiazol-6-ylphenyl)-3-((1-methylethyl){[trans-4-(trifluoromethyl)cyclohexyl]carbonyl}amino)-2-thiophenecarboxylic acid] | 50 to 100 | 100 to 500
CC(C)N(c1cc(-c2ccc(-c3cc4ncccc4o3)cc2)sc1C(=O)O)C(=O)[C@H]1CC[C@H](C(F)(F)F)CC1 [Example 22, 5-(4-Furo[3,2-b]pyridin-2-ylphenyl)-3-((1-methylethyl){[trans-4-(trifluoromethyl)cyclohexyl]carbonyl}amino)-2-thiophenecarboxylic acid] | 50 to 100 | 50 to 100
CC(C)N(c1cc(-c2ccc(-c3nc4ccc(N)cc4o3)cc2)sc1C(=O)O)C(=O)[C@H]1CC[C@H](C)CC1 [Example 23, 5-[4-(6-Amino-1,3-benzoxazol-2-yl)phenyl]-3-[[(trans-4-methylcyclohexyl)carbonyl](1-methylethyl)amino]-2-thiophenecarboxylic acid] | 50 to 100 | 10 to 50
CC(C)N(c1cc(-c2ccc(-c3cc4cccnn4n3)cc2)sc1C(=O)O)C(=O)[C@H]1CC[C@H](C)CC1 [Example 24, 3-[[(trans-4-Methylcyclohexyl)carbonyl](1-methylethyl)amino]-5-(4-pyrazolo[1,5-b]pyridazin-2-ylphenyl)-2-thiophenecarboxylic acid] | 100 to 500 | 10 to 50
CC(C)N(c1cc(-c2ccc(-c3nc4ncccc4o3)cc2)sc1C(=O)O)C(=O)[C@H]1CC[C@H](C(F)(F)F)CC1 [Example 25, 3-((1-Methylethyl){[trans-4-(trifluoromethyl)cyclohexyl]carbonyl}amino)-5-(4-[1,3]oxazolo[4,5-b]pyridin-2-ylphenyl)-2-thiophenecarboxylic acid] | 100 to 500 | 100 to 500
Cc1ccn2nc(-c3ccc(-c4cc(N(C(=O)[C@H]5CC[C@H](C(F)(F)F)CC5)C(C)C)c(C(=O)O)s4)cc3)cc2n1 [Example 26, 3-((1-Methylethyl){[trans-4-(trifluoromethyl)cyclohexyl]carbonyl}amino)-5-[4-(5-methylpyrazolo[1,5-a]pyrimidin-2-yl)phenyl]-2-thiophenecarboxylic acid] | 100 to 500 | 500 to 1000
CC(C)N(c1cc(-c2ccc(-c3cn4cc(N)ccc4n3)cc2)sc1C(=O)O)C(=O)[C@H]1CC[C@H](C)CC1 [Example 27, 5-[4-(6-Aminoimidazo[1,2-a]pyridin-2-yl)phenyl]-3-[[(trans-4-methylcyclohexyl)carbonyl](1-methylethyl)amino]-2-thiophenecarboxylic acid] | 100 to 500 | 100 to 500
CC(C)N(c1cc(-c2ccc(-c3ccc4nc[nH]c4c3)cc2)sc1C(=O)O)C(=O)[C@H]1CC[C@H](C)CC1 [Example 28, 5-[4-(1H-Benzimidazol-5-yl)phenyl]-3-[[(trans-4-methylcyclohexyl)carbonyl](1-methylethyl)amino]-2-thiophenecarboxylic acid] | 100 to 500 | 100 to 500
CC(C)N(c1cc(-c2ccc(-c3cc4cc(N)ccc4o3)cc2)sc1C(=O)O)C(=O)[C@H]1CC[C@H](C)CC1 [Example 29, 5-[4-(5-Amino-1-benzofuran-2-yl)phenyl]-3-[[(trans-4-methylcyclohexyl)carbonyl](1-methylethyl)amino]-2-thiophenecarboxylic acid] | 100 to 500 | 100 to 500
CC(C)N(c1cc(-c2ccc(-c3cc4ccc(N)cc4o3)cc2)sc1C(=O)O)C(=O)[C@H]1CC[C@H](C)CC1 [Example 30, 5-[4-(6-Amino-1-benzofuran-2-yl)phenyl]-3-[[(trans-4-methylcyclohexyl)carbonyl](1-methylethyl)amino]-2-thiophenecarboxylic acid] | 100 to 500 | 500 to 1000
CC(C)N(c1cc(-c2coc(-c3nc4ccccc4o3)c2)sc1C(=O)O)C(=O)[C@H]1CC[C@H](C)CC1 [Example 31, 5-[5-(1,3-Benzoxazol-2-yl)-3-furanyl]-3-[[(trans-4-methylcyclohexyl)carbonyl](1-methylethyl)amino]-2-thiophenecarboxylic acid] | 100 to 500 | 100 to 500
CC(C)N(c1cc(-c2ccc(-c3cn4ccsc4n3)nc2)sc1C(=O)O)C(=O)[C@H]1CC[C@H](C)CC1 [Example 32, 5-(6-Imidazo[2,1-b][1,3]thiazol-6-yl-3-pyridinyl)-3-[[(trans-4-methylcyclohexyl)carbonyl](1-methylethyl)amino]-2-thiophenecarboxylic acid] | 100 to 500 | 50 to 100
CC(C)N(c1cc(-c2ccc(-c3cc4nccc(N)n4n3)c(Cl)c2)sc1C(=O)O)C(=O)[C@H]1CC[C@H](C)CC1 [Example 33, 5-[4-(7-Aminopyrazolo[1,5-a]pyrimidin-2-yl)-3-chlorophenyl]-3-[[(trans-4-methylcyclohexyl)carbonyl](1-methylethyl)amino]-2-thiophenecarboxylic acid] | < 5 | < 5
